Results reported in patent US10336748B2, “Methyoxy-substituted pyrrolopyridine modulators of RORC2 and methods of use thereof” (Pfizer Inc., priority 2015, dated 2019).

How the values were obtained:
[1] = target: T1, RORC2 ligand binding domain (6-His-RORC2 LBD) (Homo sapiens, UniProt P51449); experiment: Co-activator recruitment by TR-FRET; assay type: biochemical; settings: 6.3 nM RORC2 LBD, 200 nM SRC1-2 coactivator peptide, 3 hr room temperature
T1 construct: made in house; host or cells: E. coli
T1 sequence (P51449 269-508 limits assumed): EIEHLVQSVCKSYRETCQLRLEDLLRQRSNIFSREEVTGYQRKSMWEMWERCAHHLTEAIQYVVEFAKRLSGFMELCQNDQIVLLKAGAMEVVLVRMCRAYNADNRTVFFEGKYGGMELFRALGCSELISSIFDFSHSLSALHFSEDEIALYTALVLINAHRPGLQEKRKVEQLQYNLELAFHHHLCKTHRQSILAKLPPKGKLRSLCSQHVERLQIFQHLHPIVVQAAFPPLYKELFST
Text: The activity of compound of the invention can be determined by a co-activator recruitment by TR-FRET (time-resolved fluorescence resonance energy transfer) assay. In general, the assay is based on the interaction between N-terminally Six-Histidine-tagged-RORC2 ligand binding domain (6-His-RORC2 LBD), expressed in E. coli and purified by affinity chromatography, and biotin-coactivator peptide SRC1-2 (biotin-aminohexanoic acid-[…]-NH2; SEQ ID NO: 1) containing the LXXLL consensus domain which is responsible for receptor binding. This interaction is detected by addition of Europium labeled-anti-His antibody (Ex. 337 nm, Em. 620 nm, which binds to 6His) and Streptavidin-APC (Ex. 620 nm, Em. 665 nm, which binds to biotin). When receptor and coactivator are bound to each other, upon shining light at 337 nm on the sample, the Europium emits fluorescence that excites APC due to close proximity (FRET) and this signal is measured at 665 nm. Due to the long lasting fluorescence emission of Europium, the non-specific, short-lived fluorescence is time-resolved (TR) from the fluorescence of interest. Inhibitors of the interaction of receptor and coactivator peptide are detected by a decrease in TR-FRET signal.
Specifically, in one embodiment the aforementioned assay was performed as outlined below. The assay was carried out in black polystyrene. 384-well plates in a total assay volume of 50.5 μL. The assay buffer contained 50 mM TRIS-HCL pH 7.5, 1 mM NaCl, 2 mM MgCl2, 0.5 mg/mL bovine serum albumin, and 5 mM dithiothreitol. The final concentration of reagents was 6.3 nM RORC2 LBD, 200 nM SRC1-2, 50 nM streptavidin APC, 1 nM Europium-labeled anti-His antibody, and varying concentrations of compounds such that final concentration of DMSO is 1% (v/v). The assay steps were: (1) dispensing […] compound at 100× final concentration in DMSO (test wells) or DMSO only (control wells for no inhibition); and (2) dispensing 50 μL mixture of the other assay components including receptor (test wells) or excluding receptor (control wells for maximal inhibition).
Assay mixtures were incubated are room temperature for 3 hr and read in EnVision 2100 Multilabel Reader (PerkinElmer Life Sciences) at Excitation Filter 320, Emission Europium Filter 615, Emission APC Filter 665, Dichroic Mirror D400/D630.
TR-FRET signal was determined by calculating the ratio of 665 nm by 615 nm and […] values of compounds of the invention (Table 1) were determined by the non-linear regression analysis of dose response curves.

human Th17 cells = experiment: IL-17 production from human Th17 cells; assay type: cell-based; settings: 144 h; IL-17A in supernatant by ELISA (MSD) after 6 days, human CD4+ T cells, anti-CD3 + anti-CD28 + cytokine cocktail
Method: The activity of compound of the invention can be also be determined by an IL-17 production from human Th17 cells assay. In general, this assay measures blockade of IL-17 production, the signature cytokine of T helper 17 (Th17) cells, by compounds. Purified human CD4+ T cells are stimulated with anti-CD3+anti-CD28 and incubated with a cytokine cocktail that induce their differentiation into Th17 in the absence or presence of various concentrations of compound. After 6 days, IL-17A concentration is measured in the cell culture supernatant with an ELISA kit (MSD).
Preparation of human CD4+ T cells. CD4+ T cells were purified from buffy coats from healthy donors (obtained from Massachusetts General Hospital) by negative selection the following procedure: Mixing 25 mL of blood with 1 mL of Rosette Sep CD4+ T cell enrichment cocktail (StemCell Technologies) followed by application of a layer of 14 mL Ficoll Paque Plus (Amersham GE Healthcare) and subsequent centrifugation at 1200 g for 20 min at room temperature. The Ficoll layer was then harvested and washed with phosphate saline buffer containing 2% (v/v) fetal bovine serum and cells were resuspended with RPMI medium containing 10% (v/v) fetal bovine serum and 10% (v/v) DMSO, frozen and kept in LN2 until used.
On the first day of the assay, a vial containing 10^7 CD4+ T cells is thawed rapidly in 37° C. water bath, immediately transferred into 20 mL X-Vivo 15 medium (Lonza), is spun for 6 min at 300×g, the supernatant is discarded, and the resulting pellet is re-suspended at 10^6 cells/mL in […] fresh X-Vivo 15 medium, followed by storage overnight in a tissue culture vessel in a humidified chamber at 37° C. and 5% CO2. Serial dilutions of compounds of the invention are prepared at 10× final concentration in X-Vivo15 medium containing 3% (v/v) DMSO.
On the second day of the assay, a 384-well tissue culture plate was coated with 10 μg/mL anti-hCD3 (eBioscience) at 50 μL/well. After 2 hr at 37° C., the supernatant is discarded and the coated plates are kept in a sterile tissue culture hood.
Cytokine plus anti-CD28 cocktail is prepared by mixing 25 ng/mL hIL-6 (Peprotech), 5 ng/mL hTGFbeta1 (Peprotech), 12.5 ng/mL IL-1beta (Peprotech), 25 ng/mL hIL-21, 25 ng/mL hIL-23 (R&D Systems), and 1 ug/mL anti-hCD28 (eBioscience) in X-Vivo 15 medium. The cytokine plus anti-CD28 cocktail with CD4+ cells is prepared such that the cocktail is diluted 10-fold and cell density is 0.22×10^6/mL. The mixture is incubated 1 hr at 37° C.
90 μL (20,000 cells) dispensed per well in the anti-hCD3 coated plate prepared as noted above.
10 μL 10× compound is added per well (final DMSO=0.3%) from the compound plate that was previously prepared, followed by 6 days of incubation in a tissue culture vessel in a humidified chamber at 37° C. and 5% CO2.
On day six of the assay, production of IL-17A in 10 μL of the supernatant is determined by sandwich ELISA using 384w hIL17 MSD plates following the manufacturer's protocol. Measurement is carried out in a Sector Imager 6000 by the same manufacturer. Signal units from the instrument are converted to pg/mL using a calibration curve with known amounts of IL-17A. IC50 values of test compounds (Table 2) are determined by the non-linear regression analysis of dose response curves.

Structure (SMILES)	IC50 [1]	IC50 (human Th17 cells)
COc1c(NC(=O)c2cccc(C#N)c2)cnc2c1c([C@@H]1CCN(C(=O)C3CCCC3)C(C)(C)C1)cn2C [Example 31, (R)-3-cyano-N-(3-(1-(cyclopentanecarbonyl)-2,2-dimethylpiperidin-4-yl)-4-methoxy-1-methyl-1H-pyrrolo[2,3-b]pyridin-5-yl)benzamide]	5.7 nM	7.2 nM
COc1ccc(C(=O)Nc2cnc3c(c([C@@H]4CCN(C(=O)C5CCCCC5)C(C)(C)C4)cn3C)c2OC)cc1C#N [Example 32, (R)-3-cyano-N-(3-(1-(cyclohexanecarbonyl)-2,2-dimethylpiperidin-4-yl)-4-methoxy-1-methyl-1H-pyrrolo[2,3-b]pyridin-5-yl)-4-methoxybenzamide]	5.8 nM	11 nM
COc1c(NC(=O)c2cccc(C#N)c2)cnc2c1c([C@@H]1CCN(C(=O)C3CC(C)(C)C3)C(C)(C)C1)cn2C [Example 33, (R)-3-cyano-N-(3-(1-(3,3-dimethylcyclobutane-1-carbonyl)-2,2-dimethylpiperidin-4-yl)-4-methoxy-1-methyl-1H-pyrrolo[2,3-b]pyridin-5-yl)benzamide]	8.5 nM	15.6 nM
COc1c(NC(=O)c2cccc(C#N)c2)cnc2c1c([C@@H]1CCN(C(=O)[C@@H](C)C(C)(C)C)C(C)(C)C1)cn2C [Example 34, 3-cyano-N-(3-((R)-2,2-dimethyl-1-((S)-2,3,3-trimethylbutanoyl)piperidin-4-yl)-4-methoxy-1-methyl-1H-pyrrolo[2,3-b]pyridin-5-yl)benzamide]	9.4 nM	23.1 nM
COc1c(NC(=O)c2ccc(SC)c(C#N)c2)cnc2c1c(C1CCN(C(=O)[C@H](C)C(C)(C)C)CC1)cn2C [Example 35, (R)-3-cyano-N-(4-methoxy-1-methyl-3-(1-(2,3,3-trimethylbutanoyl)piperidin-4-yl)-1H-pyrrolo[2,3-b]pyridin-5-yl)-4-(methylthio)benzamide]	3.2 nM	12.7 nM
